# According to BindingDB's records for doi:10.1016/S0960-894X(01)00722-3 (Janssen-Cilag, 2001):
# Assays:
# [1] = molecular target: T1, 5-hydroxytryptamine receptor 2A (Homo sapiens, UniProt P28223); assay: ChEBML_2507
# Source text: (§1) Binding affinity for human cloned 5-HT2A receptor expressed in L929 cells using [125I]R91150 as radioligand
# [2] = molecular target: T2, 5-hydroxytryptamine receptor 2C (Homo sapiens, UniProt P28335); assay: ChEBML_2740
# T2 sequence (P28335 whole entry): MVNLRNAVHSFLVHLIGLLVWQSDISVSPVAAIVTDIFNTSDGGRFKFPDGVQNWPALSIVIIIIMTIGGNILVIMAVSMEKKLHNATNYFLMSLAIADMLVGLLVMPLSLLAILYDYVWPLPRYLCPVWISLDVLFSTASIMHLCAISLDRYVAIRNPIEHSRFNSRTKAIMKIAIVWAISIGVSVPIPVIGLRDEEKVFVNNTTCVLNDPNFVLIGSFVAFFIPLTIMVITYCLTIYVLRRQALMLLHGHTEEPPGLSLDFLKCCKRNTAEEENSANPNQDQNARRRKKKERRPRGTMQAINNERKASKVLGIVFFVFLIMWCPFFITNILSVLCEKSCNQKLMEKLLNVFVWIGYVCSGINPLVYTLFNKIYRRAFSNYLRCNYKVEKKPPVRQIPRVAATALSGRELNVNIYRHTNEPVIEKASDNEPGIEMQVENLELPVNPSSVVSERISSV
# Source text: Binding affinity at human cloned 5-hydroxytryptamine 2C receptor expressed in CHO cells by [3H]mesulergine displacement.
# [3] = molecular target: Histamine H1 receptor (Homo sapiens, UniProt P35367); assay: ChEBML_84541
# Source text: Binding affinity at human cloned Histamine H1 receptor expressed in CHO cells by [3H]pyrilamine displacement.
# [4] = molecular target: 5-hydroxytryptamine receptor 1D (Homo sapiens, UniProt P28221); assay: ChEBML_1745
# Source text: Binding affinity for human cloned 5-hydroxytryptamine 1D receptor
# [5] = molecular target: D(2) dopamine receptor (Homo sapiens, UniProt P14416); assay: ChEBML_61646
# Source text: Binding affinity for human cloned Dopamine receptor D2L
# [6] = molecular target: T3, Alpha-2C adrenergic receptor (Homo sapiens, UniProt P18825); assay: ChEBML_33661
# T3 sequence (P18825 whole entry): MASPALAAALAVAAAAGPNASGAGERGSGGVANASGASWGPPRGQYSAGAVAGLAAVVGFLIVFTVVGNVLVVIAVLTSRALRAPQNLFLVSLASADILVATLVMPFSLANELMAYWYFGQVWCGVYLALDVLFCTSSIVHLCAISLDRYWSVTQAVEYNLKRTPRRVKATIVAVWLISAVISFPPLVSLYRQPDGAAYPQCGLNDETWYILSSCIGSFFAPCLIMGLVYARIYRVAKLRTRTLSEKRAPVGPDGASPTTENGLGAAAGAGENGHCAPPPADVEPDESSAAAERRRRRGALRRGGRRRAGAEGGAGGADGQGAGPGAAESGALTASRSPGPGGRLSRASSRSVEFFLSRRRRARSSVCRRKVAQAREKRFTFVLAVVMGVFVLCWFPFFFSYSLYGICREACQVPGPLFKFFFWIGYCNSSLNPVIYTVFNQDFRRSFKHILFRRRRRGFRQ
# Source text: Binding affinity for human cloned Alpha-2C adrenergic receptor
# [7] = molecular target: T4, D(4) dopamine receptor (Homo sapiens, UniProt P21917); assay: ChEBML_60841
# T4 sequence (P21917 whole entry): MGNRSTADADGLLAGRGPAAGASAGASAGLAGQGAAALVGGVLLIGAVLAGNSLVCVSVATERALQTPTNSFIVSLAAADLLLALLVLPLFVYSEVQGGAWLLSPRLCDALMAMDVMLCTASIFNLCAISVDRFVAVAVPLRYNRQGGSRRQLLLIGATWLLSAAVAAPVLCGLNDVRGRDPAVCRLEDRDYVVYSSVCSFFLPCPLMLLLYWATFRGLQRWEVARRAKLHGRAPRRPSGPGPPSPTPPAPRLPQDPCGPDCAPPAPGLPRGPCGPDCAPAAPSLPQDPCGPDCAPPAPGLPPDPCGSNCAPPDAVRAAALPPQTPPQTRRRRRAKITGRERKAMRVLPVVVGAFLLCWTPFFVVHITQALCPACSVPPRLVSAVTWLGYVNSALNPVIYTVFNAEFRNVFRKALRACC
# Source text: Binding affinity for human cloned Dopamine receptor D4
# [8] = molecular target: T5, Alpha-2A adrenergic receptor (Homo sapiens, UniProt P08913); assay: ChEBML_33198
# T5 sequence (P08913 whole entry): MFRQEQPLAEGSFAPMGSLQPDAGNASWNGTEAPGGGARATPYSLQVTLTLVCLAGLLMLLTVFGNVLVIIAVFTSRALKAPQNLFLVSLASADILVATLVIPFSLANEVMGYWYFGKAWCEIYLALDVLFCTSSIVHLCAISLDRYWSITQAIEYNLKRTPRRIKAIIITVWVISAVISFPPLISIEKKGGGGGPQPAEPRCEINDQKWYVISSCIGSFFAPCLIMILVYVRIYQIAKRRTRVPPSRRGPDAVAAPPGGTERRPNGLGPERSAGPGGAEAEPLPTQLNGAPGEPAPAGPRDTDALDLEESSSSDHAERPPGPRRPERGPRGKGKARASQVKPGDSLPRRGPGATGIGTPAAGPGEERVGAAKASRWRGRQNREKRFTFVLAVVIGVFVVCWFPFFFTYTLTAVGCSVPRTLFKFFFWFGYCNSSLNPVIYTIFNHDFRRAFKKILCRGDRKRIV
# Source text: Binding affinity for human cloned Alpha-2A adrenergic receptor
# [9] = molecular target: T6, Alpha-1A adrenergic receptor (Homo sapiens, UniProt P35348); assay: ChEBML_33869
# T6 sequence (P35348 whole entry): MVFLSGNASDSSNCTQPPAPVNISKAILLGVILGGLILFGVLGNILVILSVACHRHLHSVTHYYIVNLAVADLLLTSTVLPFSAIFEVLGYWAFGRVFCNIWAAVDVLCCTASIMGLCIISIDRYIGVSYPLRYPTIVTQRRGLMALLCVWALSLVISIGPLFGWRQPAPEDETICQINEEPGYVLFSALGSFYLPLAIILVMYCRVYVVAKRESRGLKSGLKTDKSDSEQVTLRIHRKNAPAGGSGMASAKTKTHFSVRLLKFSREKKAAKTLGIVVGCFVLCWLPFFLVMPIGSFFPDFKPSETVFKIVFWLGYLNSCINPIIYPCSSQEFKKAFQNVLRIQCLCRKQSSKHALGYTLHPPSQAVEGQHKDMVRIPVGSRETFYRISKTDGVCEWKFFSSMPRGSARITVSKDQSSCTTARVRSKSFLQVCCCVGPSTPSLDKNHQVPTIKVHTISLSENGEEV
# Source text: Binding affinity for human cloned Alpha-1A adrenergic receptor
# [10] = molecular target: D(2) dopamine receptor (Rattus norvegicus, UniProt P61169); assay: ChEBML_60811
# Source text: Binding affinity for rat Dopamine receptor D2
# [11] = molecular target: T7, 5-hydroxytryptamine receptor 1A (Homo sapiens, UniProt P08908); assay: ChEBML_1016
# T7 sequence (P08908 whole entry): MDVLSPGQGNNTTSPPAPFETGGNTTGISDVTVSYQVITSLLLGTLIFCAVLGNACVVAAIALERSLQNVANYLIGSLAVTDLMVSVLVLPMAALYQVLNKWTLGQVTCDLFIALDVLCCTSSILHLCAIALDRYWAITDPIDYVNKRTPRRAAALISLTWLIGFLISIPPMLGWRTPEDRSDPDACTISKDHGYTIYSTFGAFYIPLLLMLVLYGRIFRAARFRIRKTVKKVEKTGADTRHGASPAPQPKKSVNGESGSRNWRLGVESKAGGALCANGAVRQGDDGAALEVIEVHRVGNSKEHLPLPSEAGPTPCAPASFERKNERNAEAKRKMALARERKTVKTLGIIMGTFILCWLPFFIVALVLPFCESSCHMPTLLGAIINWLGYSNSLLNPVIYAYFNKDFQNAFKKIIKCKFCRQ
# Source text: Binding affinity for human cloned 5-hydroxytryptamine 1A receptor
# [12] = molecular target: D(3) dopamine receptor (Homo sapiens, UniProt P35462); assay: ChEBML_62451
# Source text: Binding affinity for human cloned Dopamine receptor D3
# [13] = molecular target: T1, 5-hydroxytryptamine receptor 2A; assay: as §1
# T1 sequence (P28223 whole entry): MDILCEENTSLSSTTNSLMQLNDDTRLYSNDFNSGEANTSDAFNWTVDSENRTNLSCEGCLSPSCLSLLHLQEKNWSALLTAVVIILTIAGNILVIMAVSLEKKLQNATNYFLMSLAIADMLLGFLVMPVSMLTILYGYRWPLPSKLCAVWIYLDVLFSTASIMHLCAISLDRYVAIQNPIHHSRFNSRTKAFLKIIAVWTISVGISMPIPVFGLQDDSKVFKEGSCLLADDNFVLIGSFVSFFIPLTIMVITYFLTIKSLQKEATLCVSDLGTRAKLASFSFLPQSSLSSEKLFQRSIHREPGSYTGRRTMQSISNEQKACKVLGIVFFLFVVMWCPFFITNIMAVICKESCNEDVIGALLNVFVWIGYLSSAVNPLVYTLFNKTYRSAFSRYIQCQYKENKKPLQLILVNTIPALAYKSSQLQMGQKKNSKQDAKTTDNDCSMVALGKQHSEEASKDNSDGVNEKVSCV
# D(3) dopamine receptor, sequence (P35462 as listed by the source): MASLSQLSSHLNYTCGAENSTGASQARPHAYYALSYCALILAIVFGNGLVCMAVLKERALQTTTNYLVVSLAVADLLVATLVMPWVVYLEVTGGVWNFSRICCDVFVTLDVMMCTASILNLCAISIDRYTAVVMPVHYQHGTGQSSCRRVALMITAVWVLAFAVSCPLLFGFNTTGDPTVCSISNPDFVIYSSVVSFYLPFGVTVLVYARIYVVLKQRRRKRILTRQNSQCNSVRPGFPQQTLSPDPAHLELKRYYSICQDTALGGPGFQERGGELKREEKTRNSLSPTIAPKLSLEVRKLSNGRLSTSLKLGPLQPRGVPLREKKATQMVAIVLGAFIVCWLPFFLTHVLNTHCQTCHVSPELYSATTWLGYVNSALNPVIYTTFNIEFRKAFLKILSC
# Histamine H1 receptor, sequence (P35367 whole entry): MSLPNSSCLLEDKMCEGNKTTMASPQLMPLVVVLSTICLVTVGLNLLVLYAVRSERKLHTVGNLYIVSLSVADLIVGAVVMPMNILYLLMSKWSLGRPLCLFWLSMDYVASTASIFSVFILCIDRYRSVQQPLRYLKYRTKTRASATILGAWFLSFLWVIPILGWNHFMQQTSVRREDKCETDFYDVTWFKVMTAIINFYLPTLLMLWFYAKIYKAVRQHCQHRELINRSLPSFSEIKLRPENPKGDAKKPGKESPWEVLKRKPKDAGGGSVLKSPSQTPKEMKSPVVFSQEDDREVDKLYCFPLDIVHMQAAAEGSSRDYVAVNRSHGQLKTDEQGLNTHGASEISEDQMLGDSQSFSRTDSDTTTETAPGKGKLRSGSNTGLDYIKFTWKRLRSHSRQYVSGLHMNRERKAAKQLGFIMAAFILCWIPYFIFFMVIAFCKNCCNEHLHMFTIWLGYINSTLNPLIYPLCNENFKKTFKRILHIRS
# D(2) dopamine receptor (Rattus norvegicus, UniProt P61169), sequence (P61169 whole entry): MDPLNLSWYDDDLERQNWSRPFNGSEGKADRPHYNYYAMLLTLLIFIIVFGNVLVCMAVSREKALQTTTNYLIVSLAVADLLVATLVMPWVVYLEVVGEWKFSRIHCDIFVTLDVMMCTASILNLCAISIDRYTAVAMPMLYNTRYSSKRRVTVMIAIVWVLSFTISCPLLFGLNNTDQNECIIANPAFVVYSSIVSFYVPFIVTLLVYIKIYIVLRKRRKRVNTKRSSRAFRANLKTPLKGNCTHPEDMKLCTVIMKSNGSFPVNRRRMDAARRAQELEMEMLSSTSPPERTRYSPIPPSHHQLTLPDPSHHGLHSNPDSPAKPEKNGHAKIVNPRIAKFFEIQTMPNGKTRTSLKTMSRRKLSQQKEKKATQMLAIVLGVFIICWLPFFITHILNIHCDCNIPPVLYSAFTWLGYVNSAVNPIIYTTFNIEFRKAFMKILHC
# D(2) dopamine receptor (Homo sapiens, UniProt P14416), sequence (P14416 whole entry): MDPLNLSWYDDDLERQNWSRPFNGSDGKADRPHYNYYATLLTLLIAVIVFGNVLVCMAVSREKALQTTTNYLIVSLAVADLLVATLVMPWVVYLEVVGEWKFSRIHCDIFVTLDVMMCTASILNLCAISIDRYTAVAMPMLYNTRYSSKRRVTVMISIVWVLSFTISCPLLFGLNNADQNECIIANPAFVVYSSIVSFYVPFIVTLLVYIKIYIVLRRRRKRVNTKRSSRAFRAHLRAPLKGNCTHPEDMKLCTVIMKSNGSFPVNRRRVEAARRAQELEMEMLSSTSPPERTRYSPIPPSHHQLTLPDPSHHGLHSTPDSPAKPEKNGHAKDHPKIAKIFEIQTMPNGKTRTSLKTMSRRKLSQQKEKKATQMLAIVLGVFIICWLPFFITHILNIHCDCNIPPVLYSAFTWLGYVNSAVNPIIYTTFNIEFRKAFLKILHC
# 5-hydroxytryptamine receptor 1D, sequence (P28221 whole entry): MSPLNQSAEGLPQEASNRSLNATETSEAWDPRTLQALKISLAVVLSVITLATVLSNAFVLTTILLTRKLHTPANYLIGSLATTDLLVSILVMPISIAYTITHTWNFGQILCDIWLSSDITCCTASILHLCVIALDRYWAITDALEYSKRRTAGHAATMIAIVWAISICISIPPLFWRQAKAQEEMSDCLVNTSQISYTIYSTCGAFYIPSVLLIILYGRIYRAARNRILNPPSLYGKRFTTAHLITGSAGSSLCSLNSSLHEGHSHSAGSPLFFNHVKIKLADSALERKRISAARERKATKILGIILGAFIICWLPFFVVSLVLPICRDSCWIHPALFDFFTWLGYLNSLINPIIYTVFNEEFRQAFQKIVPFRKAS
SMILES,IC50 [1] [nM],IC50 [2] [nM],IC50 [3] [nM],IC50 [4] [nM],IC50 [5] [nM],IC50 [6] [nM],IC50 [7] [nM],IC50 [8] [nM],IC50 [9] [nM],IC50 [10] [nM],IC50 [11] [nM],IC50 [12] [nM],IC50 [13] [nM]
CN(C)CC1CC2c3ccccc3Cc3c(F)cccc3N2O1 (configuration not stated),24,5,1.7,–,–,–,–,–,–,–,–,–,–
CN(C)CC1CC2c3ccccc3Cc3ccc(Cl)cc3N2O1 (configuration not stated),3.5,1,2.3,135,8.7,871,2.6,479,14,8.9,200,0.55,–
Cc1ccc2c(c1)Cc1ccccc1N1OC(CN(C)C)CC21 (configuration not stated),–,6.3,16,–,–,–,–,–,–,–,–,–,–
CN(C)CC1CC2c3cccc(F)c3Cc3ccccc3N2O1 (configuration not stated),–,12,2.3,–,–,–,–,–,–,–,–,–,–
CN(C)CC1CC2c3cc(F)ccc3Cc3ccccc3N2O1 (configuration not stated),54,11,3.8,–,–,–,–,–,–,–,–,–,–
CN(C)CC1CC2c3ccccc3Cc3ccc(-c4ccccc4)cc3N2O1 (configuration not stated),–,11,7.9,–,–,–,–,–,–,–,–,–,22
CN(C)CC1CC2c3c(F)cccc3Cc3ccccc3N2O1 (configuration not stated),< 1000,< 1000,< 1000,–,–,–,–,–,–,–,–,–,–
Cc1cccc2c1Cc1ccccc1C1CC(CN(C)C)ON21 (configuration not stated),91,3.9,6,–,–,–,–,–,–,–,–,–,–
Cc1ccc2c(c1)N1OC(CN(C)C)CC1c1ccccc1C2 (configuration not stated),3.1,3,5.9,< 1000,55,< 1000,< 1000,< 1000,43,< 1000,< 1000,< 1000,–
CN(C)CC1CC2c3cccc(Cl)c3Cc3ccccc3N2O1 (configuration not stated),< 1000,< 1000,< 1000,–,–,–,–,–,–,–,–,–,–
CN(C)CC1CC2c3ccccc3Cc3cc(F)ccc3N2O1 (configuration not stated),6.9,4.7,1.3,–,–,–,–,–,–,–,–,–,–
COc1ccc2c(c1)C1CC(CN(C)C)ON1c1ccccc1C2 (configuration not stated),302,19,14,–,–,–,–,–,–,–,–,–,–
CN(C)CC1CC2c3ccccc3Cc3ccc(F)cc3N2O1 (configuration not stated),–,–,2.6,302,36,1170,14,501,45,< 1000,1590,14,–
CN(C)CC1CC2c3cc(C(F)(F)F)ccc3Cc3ccccc3N2O1 (configuration not stated),< 1000,< 1000,< 1000,–,–,–,–,–,–,–,–,–,–
CN(C)CC1CC2c3c(cccc3C(F)(F)F)Cc3ccccc3N2O1 (configuration not stated),68,7.6,48,–,–,–,–,–,–,–,–,–,–
CN(C)CC1CC2c3ccccc3Cc3cccc(Cl)c3N2O1 (configuration not stated),32,10,15,–,–,–,–,–,–,–,–,–,–
Cc1cccc2c1C1CC(CN(C)C)ON1c1ccccc1C2 (configuration not stated),48,30,12,–,–,–,–,–,–,–,–,–,–
CN(C)CC1CC2c3cccc(C(F)(F)F)c3Cc3ccccc3N2O1 (configuration not stated),1000,437,37,–,–,–,–,–,–,–,–,–,–
CN(C)CC1CC2c3cc(F)ccc3Cc3ccc(F)cc3N2O1 (configuration not stated),–,6.2,17,< 1000,447,< 1000,< 1000,< 1000,162,–,< 1000,< 1000,–
